Patent US11213527B2, “Inhibitory effect of low molecular weight compound on cancer and fibrosis” (NATIONAL UNIVERSITY CORPORATION TOTTORI UNIVERSITY, priority 2014, dated 2022)

Columns and labels:
Wnt/β-catenin signal = experiment: Luciferase assay in HuH7 cells stably expressing pTCF4-CMVpro-Luc; assay type: cell-based; conditions: HuH7 reporter cells; two days after treatment
Method: First, 30 μg of a pTCF4-CMVpro-Luc was added to 5×10^6 HuH7 cells and the plasmid was introduced using a Cellject Pro (Thermo, Massachusetts, USA) (at 250 V, 1500 μF). Twenty-four hours after the gene introduction, 2 μg/mL of puromycin was added. Then, the cells were selected while a medium was changed every 3 to 5 days. It was observed that colonies of the pTCF4-CMVpro-Luc-containing HuH7 cells were formed at 20 days after initiation of the selection. A cloning ring, which was manufactured such that an end portion of a blue tip was cut, (the bottom edge of the cloning ring was provided with vaseline), was then used to surround one of the colonies formed. Subsequently, 30 μL of a 0.25% Trypsin/1 mM EDTA solution, which was prepared by diluting a stock solution 5-fold with PBS, was added to detach and collect the cells. […]
Next, a luciferase assay was conducted. […] Subsequently, 10 μL of the cell lysate prepared by using PLB in the 24-well plate was added to the tube, and the luciferase activity was measured by using a MiniLumat LB 9506 (Berthold Technologies, Bad Wildbad, German).
First, the HuH7 cells that were at 70 to 90% confluency and stably expressed the pTCF4-CMVpro-Luc were collected, and the 1×10^4 cells were seeded in each well of a 96-well plate (FALCON). […] Then, a fluorescence plate reader Infinite F500 (TECAN, Zurich, Switzerland) was used to measure luciferase activity.

CD44^high DLD-1 cells = experiment: Inhibitory effect on cancer stem cells in colon cancer (CD44 FACS); assay type: cell-based, human; conditions: IC-2 50 μM, 5-FU 0.5, 5 μM, 48 hours, vs control
Method: First, 1×10^6 DLD-1 cells were seeded on a 10-cm dish. After 24 hours, the cells were treated with 5-FU (0.5, 5 μM) or IC-2 (50 μM). After additional 48 hours, the cells were harvested. An anti-human CD44 antibody (Abcam Ltd., Cambridge, UK) was used as a primary antibody and an Alexa 488-labeled goat anti-mouse IgG antibody (Life Technologies Corp., Carlsbad, Calif., USA) was then used. After that, analysis was performed by using a MoFlo XDP (Beckman Coulter Inc., Fullerton, Calif.).

[1] = system: CD44-positive HuH7 cells (cancer stem cells); experiment: Inhibitory effect on cancer stem cells (FACS analysis, CD44); assay type: cell-based, human; conditions: IC-2 50 μM, PN3-13 10 μM, 5-FU 0.5 μM, two days, vs DMSO control
Method: The following protocol was used to investigate an inhibitory effect of each low-molecular-weight compound on cancer stem cells. CD44, a cancer stem cell marker, was used as an index. HuH7 cells at 70 to 90% confluency were collected and 1.5×10^6 cells were seeded on a 10-cm dish (TPP Techno Plastic Products AG, Trasadingen, Switzerland). After 15 hours, the cells were treated with each of Hexachlorophene (15 μM), ICG-001 (15 μM), PKF118-310 (5 μM), IC-2 (50 μM), PN3-13 (10 μM), and 5-FU (0.5 μM) and were incubated at 37° C. DMSO, which was a solvent for each of the low-molecular-weight compounds and anti-cancer drugs, was used as a control. Two days after the chemical treatment, the cells on a dish were collected. Next, the cells were centrifuged at 1000 rpm for 5 min at 4° C. to remove a supernatant. Then, the cells were washed twice with 1 mL of 0.5% FBS/2 mM EDTA/PBS. After that, the cells were suspended in 500 μL of 5% BSA/0.5% FBS/2 mM EDTA/PBS and blocked once for 15 min at 4° C.
Next, 5 μL of an anti-human CD44 monoclonal antibody (Cell Signaling Technology Inc., Danvers, Mass., USA) was added. Then, the cells were suspended and a primary antibody reaction was performed in a dark room for 10 min at 4° C. After that, the cells were washed 3 times with 1 mL of PBS. […] Note that a significant difference was evaluated by using Student's t-test (two-tailed). […]

[2] = system: fibrosis markers TGFβ, α-SMA, and COL1A1; experiment: Real-time PCR of fibrosis markers in LX-2 cells; assay type: cell-based, human; conditions: compound+TGFβ, with increasing concentration
Method: A human liver stellate cell line (LX-2 cells) was maintained and cultured in a DMEM containing 10% FBS. The cells used for experiments were suspended in a DMEM containing 1% FBS and plated. The cell density was at about 2.0×10^5 cell/cm^2.
A real-time PCR was carried out to examine an inhibitory effect of each low-molecular-weight compound on fibrosis. The real-time PCR was conducted under conditions indicated in FIG. 55 and the following sections 9.4.1 to 9.4.2. Note that TGFβ, α-SMA, and COL1A1 are fibrosis markers.
A pre-Mix was prepared by using MilliQ water: 5.2 μL/sample, MgCl2: 0.8 μl/sample, 10 μM primer F: 0.5 μl, 10 μM primer R: 0.5 μl, and LightCycler FastStart DNA Master SYBER Green I (1a+1b): […]/sample. Next, 8 μL of the pre-Mix was pipetted into each well. Then, 2 μL of the sample was added thereto.

Row | SMILES | inhibitory effect on a Wnt/β-catenin signal (luciferase activity) (Wnt/β-catenin signal) | proportion of CD44^high cells (CD44^high DLD-1 cells) | number of cancer stem cells (CD44-positive cells) [1] | level of expression of COL1A1 ([2]; 24 or 48 hours) | level of expression of α-SMA ([2]; 24 or 48 hours) | level of expression of TGFβ ([2]; 24 hours) | level of expression of TGFβ ([2]; 48 hours)
1 | O=c1[nH]cc(F)c(=O)[nH]1 [5-FU, reference compound] | exerted no inhibitory effect | rather increased the proportion | rather increased the number of cancer stem cells | – | – | – | –
2 | O=C1[C@H](Cc2ccccc2)N2C(=O)CCN(C(=O)NCc3ccccc3)[C@H]2CN1Cc1cccc2ccccc12 [IC-2] | exerted an inhibitory effect | significantly decreased the proportion of CD44^high cells | significantly less than that of the control | decreased | remarkably reduced | decreased | decreased
